From the supplement of paper PMC10307832 come the findings set out here.

What all share (assay): relative viability (nuclei count vs DMSO), 5 days (fraction); higher = more cells survive
Compound in assay [1]: CO[C@@H]1[C@H](N(C)C(=O)c2ccccc2)C[C@H]2O[C@]1(C)n1c3ccccc3c3c4c(c5c6ccccc6n2c5c31)C(=O)NC4 [Midostaurin]
The essentials: (§1)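 Lung cancer cell lines received five library-drug doses (not always all listed) spaced by √10, pinned on vehicle-anchored 1536-well plates after an overnight stay at 37 °C. Five days later, with no medium change, nuclei were Hoechst-stained, imaged at 4× and counted with MetaXpress. Viability is treated-well nuclei relative to vehicle-well nuclei, as a median across plates. Passing plates had control CV below 25% and at least one doubling.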

Compound in assay [2]: COc1cc(-c2nn([C@H]3CC[C@H](N4CCN(C(C)=O)CC4)CC3)c3ncnc(N)c23)ccc1NC(=O)c1cc2ccccc2n1C
The essentials: as §1

Compound in assay [3]: CO[C@@H]1[C@H](N(C)C(=O)c2ccccc2)C[C@H]2O[C@]1(C)n1c3ccccc3c3c4c(c5c6ccccc6n2c5c31)C(=O)NC4 [Midostaurin] + Cc1nc(NC(=O)N2CCC[C@H]2C(N)=O)sc1-c1ccnc(C(C)(C)C(F)(F)F)c1 [Alpelisib] (partner 2 µM)
The essentials:
(§2)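 Lung cancer cell lines in 1536-well plates got either a single drug or a fixed anchor-drug dose together with five library-drug doses (not always all listed) in √10 steps, by pin tool, on the day after seeding. Nuclei were counted after 5 days, and relative viability is the treated-to-vehicle ratio of nuclei counts. Values are medians of duplicate plates.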

Compound in assay [4]: COc1cc(-c2nn([C@H]3CC[C@H](N4CCN(C(C)=O)CC4)CC3)c3ncnc(N)c23)ccc1NC(=O)c1cc2ccccc2n1C + Cc1nc(Nc2ncc(C(=O)Nc3c(C)cccc3Cl)s2)cc(N2CCN(CCO)CC2)n1 [Dasatinib] (partner 0.075 µM)
The essentials:
as §2

Compound in assay [5]: COc1cc(-c2nn([C@H]3CC[C@H](N4CCN(C(C)=O)CC4)CC3)c3ncnc(N)c23)ccc1NC(=O)c1cc2ccccc2n1C + Nc1nc2[nH]cc(CCc3ccc(C(=O)N[C@@H](CCC(=O)O)C(=O)O)cc3)c2c(=O)[nH]1 [Pemetrexed] (partner 0.2 µM)
The essentials:
as §2

Take UMC-11: the relative viability in assay [1] (0.01 µM) was 0.984; in assay [1] (0.03162 µM), 0.901; in assay [1] (0.1 µM), 1; in assay [1] (0.3162 µM), 0.617; in assay [2] (0.0128 µM), 1.04; in assay [2] (0.04048 µM), 0.955. Besides, the relative viability in assay [2] (0.128 µM) stood at 0.927; in assay [2] (1.28 µM), 0.84; in assay [3] (first compound 0.01 µM), 1.04; in assay [3] (first compound 0.03162 µM), 0.915; in assay [3] (first compound 0.1 µM), 0.792; in assay [3] (first compound 0.3162 µM) it was 0.375. Besides, the relative viability in assay [4] (first compound 0.0128 µM) is 0.49; in assay [4] (first compound 0.04048 µM) it was 0.468; in assay [4] (first compound 0.128 µM), 0.42; in assay [4] (first compound 1.28 µM), 0.446; in assay [5] (first compound 0.0128 µM), 0.694; in assay [5] (first compound 0.04048 µM), 0.865. The relative viability was 0.809 in assay [5] (first compound 0.128 µM) and 0.576 in assay [5] (first compound 1.28 µM).
